According to US9914869B2, “System and method for inhibiting scale formation in oil wells” (GLOBAL GREEN PRODUCTS LLC, priority 2012, dated 2018):

Assay: Scale inhibitor comparison: static bottle test (barium sulfate) and dynamic tube block test (calcium carbonate)
Conditions: barium sulfate / calcium carbonate scale inhibition; table does not say which scale
Excerpt: These types of chemistries may be used as a comparison when evaluating one or more new scale inhibitors, such as the various aspartic acid based polymers.

| Compound | Approximate effective Concentration [ppm] |
| --- | --- |
| O=P(O)(O)CN(CCCCCCN(CP(=O)(O)O)CP(=O)(O)O)CCCCCCN(CP(=O)(O)O)CP(=O)(O)O [BHMT Phosphonate] | 2 |
| diethylenetriamine (DETA) phosphonates [DETA Phosphonate] | 2 |
